Laboratory results taken from patent US12000825B2, “Method of selecting stem cells having ability to produce extracellular vesicles with high efficiency using activation of protease-activated receptor-mediated signaling pathways” (SAMSUNG LIFE PUBLIC WELFARE FOUNDATION, priority 2019, dated 2024).
Entries after “also recorded” stand apart in the source; their conditions may differ.

Assays:
[1] = system: Human umbilical cord blood-derived mesenchymal stem cells (MSCs); assay: Isolation and quantification of extracellular vesicles (NanoSight); format: cell-based; settings: for production of EVs: 6 hours, FIG. 1A
Description: (§1) To pretreat the umbilical cord blood-derived mesenchymal stem cells with thrombin, first, the mesenchymal stem cells were cultured in α-MEM (Gibco, Grand Island, NY, USA) supplemented with 10% (v/v) fetal bovine serum (FBS, Gibco), 100 units/mL penicillin, and 100 μg/mL streptomycin (Invitrogen, Carlsbad, CA, USA) under standard culture conditions. When the cells reached approximately 90% confluency in a culture plate, the cells were washed three times with phosphate buffered saline (PBS) to remove contaminated FBS-derived exosomes, and were then incubated in new serum-free α-MEM supplemented with human recombinant thrombin (1 U/mL, 2 U/mL, and 4 U/mL; Sigma-Aldrich, St. Louis, MO, USA) for 6 hours. After the medium was collected, about 2×10^6 cells per 100 mm culture dish was counted using a Luna-FL™ system (Logos Biosystems, Anyang-si, Korea).
To isolate extracellular vesicles (hereinafter, referred to as EVs) secreted by the umbilical cord blood-derived mesenchymal stem cells pretreated with thrombin according to the method of Example 1-1, an experiment was conducted according to the following processes. Specifically, the above recovered medium was centrifuged at 3,000 rpm and 4° C. for 30 minutes to remove cell debris, and then centrifuged at 100,000 rpm and 4° C. for 120 minutes to precipitate EVs. Then, the precipitated pellet was washed twice, re-suspended in sterile PBS, and stored at −80° C. until use.
The distribution of EVs was analyzed by measuring the rate of Brownian motion using NanoSight (NanoSight NS300; Malvern, Worcestershire, UK), which is equipped with fast video capture and particle-tracking software. The obtained EVs were re-suspended in PBS (500 μl, 1 mg/mL total protein), and size and polydispersity thereof were measured. In addition, to quantify the production of EVs by a single cell, cells were counted using a LUNA-FL system according to the manufacturer's protocol using the medium recovered above. The number of EVs produced by a single cell was calculated by dividing the total number of EVs by the number of cells.

[2] = system: Human umbilical cord blood-derived mesenchymal stem cells (MSCs); assay: Bioplex assay / ELISA of proteins in EVs (VEGF, angiogenin, angiopoietin-1, HGF); format: cell-based
Description: as §1
To analyze the cytokine levels of EVs by ELISA, an experiment was conducted using the following method. Specifically, a homogenate of isolated EVs was added to a well containing 0.1 mL of lysis buffer in an ELISA kit. Subsequently, proteins in EVs were quantified using the Bradford method, and then 1 μg of protein was loaded into each well. Thereafter, the levels of angiogenin, angiopoietin-1, VEGF, and HGF, which are present in EVs, were quantified using the Fluorokine® MAP Human Angiogenesis Custom Premix Kit A (R & D Systems, Minneapolis, MN, USA).

[3] = system: Human umbilical cord blood-derived mesenchymal stem cells (MSCs); assay: Early endosome labeling (CellLight Early Endosomes-GFP); format: cell-based
Description: Early endosomes were labeled using CellLight® reagent-green fluorescent protein (GFP), BacMam 2.0 (Thermo Fisher Scientific, San Jose, CA, USA) according to the manufacturer's instructions. Briefly, mesenchymal stem cells were dispensed in a 12-well plate at a density of 1.5×10^4 per well, and after cells were attached, BacMam 2.0 reagent was added at a concentration of 40 particles per cell (PPC). Next, to measure Rab5α-GFP expression, early endosomes were labeled using CellLight® early endosomes-GFP, BacMam 2.0. Thereafter, to estimate the number of GFP-labeled endosomes, the optical density of green immunofluorescence was measured using ImageJ (National Institutes of Health, Bethesda, MD, USA).

[4] = system: Rab-5 and EEA-1; assay: Immunoblot of early endosome markers; format: cell-based, human
Description: (§2) Umbilical cord blood-derived mesenchymal stem cells and EVs were lysed by adding an equal volume of RIPA buffer (Sigma-Aldrich, St. Louis, MO, USA). The protein contents of the lysates were quantified using the Bradford method, and samples containing 10 μg of proteins were mixed with loading buffer containing β-mercaptoethanol, boiled for 10 minutes, and separated according to size by 12% SDS-polyacrylamide gel electrophoresis (SDS-PAGE). Subsequently, the separated proteins were transferred to nitrocellulose membranes, and then a 5% bovine serum albumin (BSA) solution was prepared with 0.5% Tween-20-containing 1×PBS-T, the membranes were blocked therewith at room temperature, followed by treatment with primary antibodies and incubation at room temperature for 1 hour. After incubation, the membranes were washed with 1×PBS-T, followed by incubation with anti-mouse or anti-rabbit horseradish peroxidase-conjugated immunoglobulin G (1:2000) secondary antibodies while being stirred at room temperature for 1 hour. Subsequently, after washing with PBS-T, protein bands were detected using an ECL Select chemiluminescence reagent (GE Healthcare Life Sciences, Piscataway, NJ, USA), and band images were acquired with X-ray films.

[5] = system: ERK1/2 and AKT signaling pathways; assay: Immunoblot of ERK1/2 and AKT phosphorylation; format: cell-based, human
Description: as §2

[6] = system: Human umbilical cord blood-derived mesenchymal stem cells (MSCs); assay: Observation of EVs by SEM and TEM; format: cell-based; settings: thrombin-pretreated vs not treated, FIG. 1D
Description: EVs (5 μl) were fixed with 2% glutaraldehyde, loaded on 200-mesh formvar/carbon-coated electron microscopy grids (Electron Microscopy Sciences, Washington, PA, USA), and incubated for 10 minutes. Subsequently, the EVs were washed with filtered distilled water and stained with 2% uranyl acetate in water for 1 minute. Thereafter, the stained EVs were observed using a Tecnai Spirit G2 transmission electron microscope (FEI, Hillsboro, OR, USA) operating at 120 kV, and then an image thereof was acquired.
Meanwhile, to observe isolated EVs using a scanning electron microscope, EVs were fixed in 2.5% glutaraldehyde and loaded on a polycarbonate membrane. Next, the membrane was washed once with PBS and water and then dehydrated with acetone. Subsequently, the acetone was removed by critical point drying using liquid carbon dioxide. Samples were mounted on aluminum stubs with carbon tape and mounted on an SEM stub. After sputter coating with 3-5 nm platinum, the samples were observed using a scanning electron microscope (Zeiss Auriga Workstation, Oberkochen, Germany) and images thereof were acquired.

[7] = compared to no thrombin, in proportion to thrombin concentration

CC(C)c1ccc(Cn2ccc3c4c(N)nc(NC5CC5)nc4ccc32)cc1.Cl.Cl [SCH79797, N3-cyclopropyl-7-[[4-(1-methylethyl)phenyl]methyl]-7H-pyrrolo[3,2-f]quinazolin-1,3-diamine dihydrochloride, reference compound]
increase in the number of extracellular vesicles by thrombin, comparison ([1]; compared to transfection with PAR3 siRNA, FIGS. 5B and 5C): inhibited at a higher level | increase in the number of extracellular vesicles by thrombin treatment ([1]; thrombin-pretreated MSC culture media, SCH79797 1 μM, FIGS. 5B and 5C): significantly inhibited | increase in the levels of proteins in EVs, comparison ([2]; compared to transfection with PAR3 siRNA, FIG. 5D): inhibited at a higher level | increase in the levels of VEGF, angiogenin, angiopoietin-1 and HGF in EVs ([2]; thrombin-pretreated MSCs, SCH79797 1 μM, FIG. 5D): significantly inhibited | increase in the number of early endosomes by thrombin, comparison ([3]; compared to transfection with PAR3 siRNA, FIG. 5A): more significantly inhibited | increase in the number of early endosomes by thrombin treatment ([3]; thrombin-pretreated MSCs, SCH79797 1 μM, FIG. 5A): significantly inhibited | expression levels of Rab-5 and EEA-1, comparison ([4]; thrombin-pretreated MSCs, compared to the PAR3 siRNA-treated group, FIG. 4A): further reduced | expression levels of Rab-5 and EEA-1 ([4]; thrombin-pretreated MSCs, compared to thrombin alone, SCH79797 1 μM, FIG. 4A): significantly reduced | increase in phosphorylation of ERK1/2 and AKT by thrombin, comparison ([5]; compared to PAR-3-specific siRNA treatment, FIG. 4B): inhibited at a more significant level | increase in phosphorylation of ERK1/2 and AKT by thrombin pretreatment ([5]; thrombin-pretreated MSCs, SCH79797 1 μM, FIG. 4B): significantly inhibited

thrombin
amount of produced extracellular vesicles, increase [1, 7]: ≥ 5 fold | production of EVs ([1]; thrombin 1-4 U/mL): increased in a thrombin concentration-dependent manner | production of EVs ([1]; thrombin 2 U/mL and 4 U/mL): significantly increased | number of isolated EVs ([1]; thrombin-pretreated vs not treated, FIG. 1E): greater number | levels of proteins in extracellular vesicles, increase [2, 7]: ≥ 2 fold | levels of VEGF, angiogenin, angiopoietin-1 and HGF in EVs ([2]; thrombin 2 U/mL and 4 U/mL vs not treated, FIG. 1B): significantly increased | level of early endosomes ([3]; thrombin-pretreated vs naive, FIG. 1C): significantly increased; also recorded: significantly high level | expression levels of early endosome markers Rab-5 and EEA-1 ([4]; thrombin treatment vs none, FIG. 3A): significantly increased | expression of non-phosphorylated ERK1/2 and AKT ([5]; thrombin treatment, not statistically significant, FIG. 3B): tended to increase slightly | expression of pERK1/2 and pAKT (phosphorylation of ERK1/2 and AKT) ([5]; thrombin-pretreated vs not treated, FIG. 3B): significantly increased | EVs observed by SEM/TEM [6]: more EVs were observed
